From patent US20250145633A1, “SUBSTITUTED FURANOPYRIMIDINE COMPOUNDS AS PDE1 INHIBITORS” (Dart NeuroScience, LLC, priority 2017, published 2025) come the findings set out here.

The target of the first experiment is human PDE1B enzyme (Homo sapiens (Human), UniProt Q01064). Kind of experiment: IMAP TR-FRET PDE1B enzymatic assay. The class given is biochemical. The following applies: negative log of half-maximal molar inhibitory concentration; 200 nM FAM-cAMP; values given as bins. The gist of the method:
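Full-length GST-tagged human PDE1B (250 pg/well) in IMAP BSA buffer with 10 U/ml calmodulin and 2.5 mM CaCl2; compound pre-incubated 5 min at room temperature, then 200 nM (final) FAM-cAMP for 30 min. IMAP binding reagent/Tb added, 1 h; TR-FRET 520/490 ratio read. IC50 from sigmoidal dose-response fit.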
With `Cc1cnc(C2CCN(C(=O)c3c(C)oc4ncnc(NC5(C)CC5)c34)CC2)nc1` [Example 360, 6-Methyl-N-(1-methylcyclopropyl)-5-[4-(5-methylpyrimidin-2-yl)piperidine-1-carbonyl]furo[2,3-d]pyrimidin-4-amine], the “PDE1b (pIC50)” value was over 8.
Still for that read-out and setting: with `COc1cccc(C2CCN(C(=O)c3c(C)oc4ncnc(NC5(C)CC5)c34)C2)c1` (centres unmarked) [Example 361, 5-[3-(3-Methoxyphenyl)pyrrolidine-1-carbonyl]-6-methyl-N-(1-methylcyclopropyl)furo[2,3-d]pyrimidin-4-amine] the figure was over 8; with `COc1cnc(C2CCN(C(=O)c3c(C)oc4ncnc(NC5(C)CC5)c34)CC2)cn1` [Example 365, 5-[4-(5-Methoxypyrazin-2-yl)piperidine-1-carbonyl]-6-methyl-N-(1-methylcyclopropyl)furo[2,3-d]pyrimidin-4-amine], over 8; with `COc1ccc(C2CCN(C(=O)c3c(C)oc4ncnc(NC5(C)CC5)c34)CC2)nc1` [Example 366, 5-[4-(5-Methoxypyridin-2-yl)piperidine-1-carbonyl]-6-methyl-N-(1-methylcyclopropyl)furo[2,3-d]pyrimidin-4-amine], over 8.
Still for that read-out and setting: with `COc1cccc(C2CCN(C(=O)c3c(C)oc4ncnc(NC5(C)CC5)c34)C2)n1` (centres unmarked) [Example 367, 5-[3-(6-Methoxypyridin-2-yl)pyrrolidine-1-carbonyl]-6-methyl-N-(1-methylcyclopropyl)furo[2,3-d]pyrimidin-4-amine] the figure was over 8; with `Cc1oc2ncnc(NC3(C)CC3)c2c1C(=O)N1CCC(c2nccc(C3CC3)n2)CC1` [Example 368, 5-[4-(4-Cyclopropylpyrimidin-2-yl)piperidine-1-carbonyl]-6-methyl-N-(1-methylcyclopropyl)furo[2,3-d]pyrimidin-4-amine], over 8.
Still for that read-out and setting: with `CCCc1ccnc(C2CCN(C(=O)c3c(C)oc4ncnc(NC5(C)CC5)c34)CC2)n1` [Example 369, 6-Methyl-N-(1-methylcyclopropyl)-5-[4-(4-propylpyrimidin-2-yl)piperidine-1-carbonyl]furo[2,3-d]pyrimidin-4-amine] the figure was over 8; with `COc1cnc(C2CCN(C(=O)c3c(C)oc4ncnc(NC5(C)CC5)c34)CC2)nc1` [Example 370, 5-[4-(5-Methoxypyrimidin-2-yl)piperidine-1-carbonyl]-6-methyl-N-(1-methylcyclopropyl)furo[2,3-d]pyrimidin-4-amine], over 8; with `Cc1oc2ncnc(NC3(C)CC3)c2c1C(=O)N1CCC(c2cccc(Br)n2)C1` (centres unmarked) [Example 372, 5-[3-(6-Bromopyridin-2-yl)pyrrolidine-1-carbonyl]-6-methyl-N-(1-methylcyclopropyl)furo[2,3-d]pyrimidin-4-amine], over 8.
Regarding `Cc1oc2ncnc(NC3(C)CC3)c2c1C(=O)N1CCC(c2ccc(Br)cn2)C1` (centres unmarked) [Example 373, 5-[3-(5-Bromopyridin-2-yl)pyrrolidine-1-carbonyl]-6-methyl-N-(1-methylcyclopropyl)furo[2,3-d]pyrimidin-4-amine], the “PDE1b (pIC50)” value is listed as over 8.

The same experiment, now with this note: negative log of half-maximal molar inhibitory concentration; 200 nM FAM-cAMP; values given as bins; read-out: PDE1b (pIC50) (converted).
Regarding `Cc1oc2ncnc(NC3(C)CC3)c2c1C(=O)N1CCN(c2ccc(S(C)(=O)=O)cc2F)CC1` [Example 359, 5-[4-(2-Fluoro-4-methanesulfonylphenyl)piperazine-1-carbonyl]-6-methyl-N-(1-methylcyclopropyl)furo[2,3-d]pyrimidin-4-amine], the IC50 is 0.01 to 0.1 µM.
The same measure, in the same setting: with `Cc1oc2ncnc(NC3(C)CC3)c2c1C(=O)N1CCN(c2nc(Cl)ncc2F)CC1` [Example 362, 5-[4-(2-Chloro-5-fluoropyrimidin-4-yl)piperazine-1-carbonyl]-6-methyl-N-(1-methylcyclopropyl)furo[2,3-d]pyrimidin-4-amine] the figure was 0.01 to 0.1 µM; with `Cc1oc2ncnc(NC3(C)CC3)c2c1C(=O)NNc1ncc(F)cn1` [Example 363, N′-(5-Fluoropyrimidin-2-yl)-6-methyl-4-[(1-methylcyclopropyl)amino]furo[2,3-d]pyrimidine-5-carbohydrazide], 0.1 to 1 µM; with `COc1ccc(C2CCN(C(=O)c3c(C)oc4ncnc(NC5(C)CC5)c34)CC2)nn1` [Example 364, 5-[4-(6-Methoxypyridazin-3-yl)piperidine-1-carbonyl]-6-methyl-N-(1-methylcyclopropyl)furo[2,3-d]pyrimidin-4-amine], 0.01 to 0.1 µM.
The same measure, in the same setting: in the case of `COc1ccc(CC2(NC(=O)c3c(C)oc4ncnc(NC5(C)CC5)c34)CC2)cc1` [Example 371, N-{1-[(4-Methoxyphenyl)methyl]cyclopropyl}-6-methyl-4-[(1-methylcyclopropyl)amino]furo[2,3-d]pyrimidine-5-carboxamide] it was 0.01 to 0.1 µM.
On the same count and under the same terms, with `Cc1oc2ncnc(NC3(C)CC3)c2c1C(=O)NC(C)(C)CF` [Example 374, N-(1-Fluoro-2-methylpropan-2-yl)-6-methyl-4-[(1-methylcyclopropyl)amino]furo[2,3-d]pyrimidine-5-carboxamide] the figure was 0.01 to 0.1 µM; with `Cc1oc2ncnc(NC3(C)CC3)c2c1C(=O)N1CCCC2(C1)C(=O)Nc1ccccc12` (centres unmarked) [Example 375, 1′-{6-Methyl-4-[(1-methylcyclopropyl)amino]furo[2,3-d]pyrimidine-5-carbonyl}-1,2-dihydrospiro[indole-3,3′-piperidine]-2-one], 0.1 to 1 µM; with `Cc1oc2ncnc(NC3(C)CC3)c2c1C(=O)N1CCCC2(C1)C(=O)N(C)c1ccccc12` (centres unmarked) [Example 376, 1-Methyl-1′-{6-methyl-4-[(1-methylcyclopropyl)amino]furo[2,3-d]pyrimidine-5-carbonyl}-1,2-dihydrospiro[indole-3,3′-piperidine]-2-one], 0.1 to 1 µM.
For `Cc1oc2ncnc(NC3(C)CC3)c2c1C(=O)N1CC(C#N)C2(C1)C(=O)Nc1ccccc12` (centres unmarked) [Example 377, 1′-{6-Methyl-4-[(1-methylcyclopropyl)amino]furo[2,3-d]pyrimidine-5-carbonyl}-2-oxo-1,2-dihydrospiro[indole-3,3′-pyrrolidine]-4′-carbonitrile], the IC50 is 0.01 to 0.1 µM.
The same measure, in the same setting: with `Cc1oc2ncnc(NC3(C)CC3)c2c1C(=O)N1CCOC2(CCc3ccccc32)C1` (centres unmarked) [Example 378, 5-({2,3-Dihydrospiro[indene-1,2′-morpholine]-4′-yl}carbonyl)-6-methyl-N-(1-methylcyclopropyl)furo[2,3-d]pyrimidin-4-amine] the figure was 0.1 to 1 µM.
The same measure, in the same setting: in the case of `Cc1oc2ncnc(NC3(C)CC3)c2c1C(=O)N1CCCC2(C1)OCc1ccccc12` (centres unmarked) [Example 379, 6-Methyl-N-(1-methylcyclopropyl)-5-({3H-spiro[2-benzofuran-1,3′-piperidine]-1′-yl}carbonyl)furo[2,3-d]pyrimidin-4-amine] it was 0.1 to 1 µM; in that of `Cc1oc2ncnc(NC3(C)CC3)c2c1C(=O)N1CCC2(C1)OCc1ccccc12` (centres unmarked) [Example 380, 6-Methyl-N-(1-methylcyclopropyl)-5-(f{3H-spiro[2-benzofuran-1,3′-pyrrolidine]-1′-yl}carbonyl)furo[2,3-d]pyrimidin-4-amine], 0.01 to 0.1 µM; in that of `Cc1oc2ncnc(NC3(C)CC3)c2c1C(=O)N1CCN(c2cncnc2)CC1` [Example 381, 6-Methyl-N-(1-methylcyclopropyl)-5-[4-(pyrimidin-5-yl)piperazine-1-carbonyl]furo[2,3-d]pyrimidin-4-amine], 0.01 to 0.1 µM.
